Source: patent US9447075B2, “Pyridazine derivatives as EAAT2 activators” (The Brigham and Women's Hospital, Inc., priority 2011, dated 2016)

Columns and labels:
[1] = test system: male C57/BL6 mice, focal cerebral ischemia; assay: Stroke model, transient middle cerebral artery occlusion (MCAO); type: in vivo, mouse; conditions: 24 hours after surgery
Protocol: Compound 212320 was evaluated in the transient middle cerebral artery occlusion (MCAO), a well-characterized model of focal cerebral ischemia (experimental stroke). Adult male C57/BL6 mice (60-70 days old) were used. The internal carotid artery was occluded for 60 min. Following reperfusion, mice received 40 mg/kg of Compound 212320 by intraperitoneal injection. 24 hours after surgery, brains were removed and processed to determine infarct volume.
Mice received 40 mg/kg Compound 212320 or vehicle intraperitoneally and 24 h after stroke, brains were processed to measure infarct volume.

EphA4 = EphA4 (Homo sapiens, UniProt P54764); assay: Protein kinase profiling: EphA4; type: biochemical; conditions: read-out: EphA4 inhibited
Sequence of EphA4 (P54764 20-986, species assumed): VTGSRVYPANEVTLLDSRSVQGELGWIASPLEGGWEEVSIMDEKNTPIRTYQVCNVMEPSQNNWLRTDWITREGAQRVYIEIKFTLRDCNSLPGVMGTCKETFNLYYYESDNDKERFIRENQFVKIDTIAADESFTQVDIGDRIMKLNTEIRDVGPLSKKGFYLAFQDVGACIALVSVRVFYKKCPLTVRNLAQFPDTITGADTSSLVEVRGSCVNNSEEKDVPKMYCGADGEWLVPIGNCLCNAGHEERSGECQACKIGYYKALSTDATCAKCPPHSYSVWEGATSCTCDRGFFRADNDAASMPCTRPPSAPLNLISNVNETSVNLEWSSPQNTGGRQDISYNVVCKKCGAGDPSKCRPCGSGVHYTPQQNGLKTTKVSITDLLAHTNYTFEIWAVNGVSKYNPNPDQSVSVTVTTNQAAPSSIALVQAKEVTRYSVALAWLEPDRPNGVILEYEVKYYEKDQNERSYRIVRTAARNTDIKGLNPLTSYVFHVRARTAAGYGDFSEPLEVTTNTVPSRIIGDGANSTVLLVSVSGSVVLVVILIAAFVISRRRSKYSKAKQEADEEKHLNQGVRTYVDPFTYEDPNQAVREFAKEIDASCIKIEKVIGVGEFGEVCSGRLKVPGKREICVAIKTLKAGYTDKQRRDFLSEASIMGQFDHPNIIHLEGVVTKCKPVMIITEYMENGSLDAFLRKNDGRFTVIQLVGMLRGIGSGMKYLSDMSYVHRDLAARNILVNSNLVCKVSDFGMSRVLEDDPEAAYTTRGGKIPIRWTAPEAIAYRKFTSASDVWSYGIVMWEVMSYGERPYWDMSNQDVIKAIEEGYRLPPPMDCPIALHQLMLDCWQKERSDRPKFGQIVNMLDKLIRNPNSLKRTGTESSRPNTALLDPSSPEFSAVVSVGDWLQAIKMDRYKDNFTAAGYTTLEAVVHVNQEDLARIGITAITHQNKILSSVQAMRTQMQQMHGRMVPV
Protocol: (§1) To assess Compound 212320's biological activity and selectivity, we performed an in vitro side effect profiling study. Seventy-one targets were tested at 10 μM in duplicate. These targets include neurotransmitter related receptors (30), steroids (2), ion channels (6), second messenger (1), prostaglandins (3), growth factors/hormones (4), brain/gut peptides (13), enzymes (5) and cytochrome p450 (7). […] Additionally, we performed a protein kinase profiling study. Compound 212320 was tested at 1 and 10 μM against 288 kinases. […] These studies indicate that Compound 212320 has high specificity and low side-effects/toxicity potential.

[2] = test system: primary dissociated neuron and astrocyte mixed cultures; assay: Glutamate-induced excitotoxicity in primary neuron and astrocyte mixed cultures (LDH assay, MAP2 immunostaining); type: cell-based; conditions: for MAP2-positive neurons left compared to the control: 0.1 mM glutamate
EAAT2 [3] = assay: EAAT2 protein levels and glutamate uptake in forebrain plasma membrane vesicles after i.p. administration; type: in vivo, mouse; conditions: for EAAT2 protein levels increase / Glutamate uptake increase: single i.p. 40 mg/kg
Protocol: We next examined EAAT2 protein levels and glutamate uptake activities in brain following i.p. administration of Compound 212320 in C57BL/6 mice. Plasma membrane vesicles were prepared from mouse forebrains to measure functional EAAT2 protein. After a single i.p. dose of Compound 212320 at 40 mg/kg, EAAT2 protein levels and associated glutamate uptake increased to ˜1.5-2-fold at 2 hr and to ˜2-3-fold from 8 hr to 24 hr post-injection (FIG. 8B). Even at 72 hr, a ˜1.5 fold increase in EAAT2 protein levels could still be detected (data not shown). In addition, Compound 212320-induced EAAT2 protein levels and glutamate uptake were both dose-dependent (FIG. 8C). This induction was not due to transcriptional activation because EAAT2 mRNA was not increased as measured by quantitative real-time RT-PCR (FIG. 8D). We compared ceftriaxone (200 mg/kg), which increases EAAT2 expression through transcriptional activation, with Compound 212320 (40 mg/kg) that activates EAAT2 translation.

[4] = test system: All other kinases (288 kinases tested); assay: Protein kinase profiling: all other of 288 kinases; type: biochemical; conditions: 1 and 10 μM
Protocol: as §1

EAAT2 [5] = assay: EAAT2 protein levels and glutamate uptake in primary dissociated neuron and astrocyte mixed cultures; type: cell-based; conditions: seven day-old mixed cultures, serum-free media, 48 hr
Protocol: We next evaluated Compound 212320 in primary dissociated neuron and astrocyte mixed cultures. Seven day-old cultures were treated with Compound 212320 in serum-free media for 48 hr. As shown in FIG. 7A-B, Compound 212320 increased EAAT2 protein levels and glutamate uptake function.

EAAT2 mRNA = assay: Quantitative real-time RT-PCR of EAAT2 mRNA in PA-EAAT2 cells; type: cell-based, human; conditions: PA-EAAT2 cells (FIG. 6F)
Protocol: Characterization and efficacy studies of a compound, Compound 212320 (FIG. 6A) is shown. […] In the absence of serum, PA-EAAT2 cells express low amounts of EAAT2 protein, although the recombinant EAAT2 mRNA are expressed (translational silencing); however, EAAT2 protein levels are increased when an activator is added to the culture (translational activation). This cell line was used for high-throughput screening to identify EAAT2 translational activators. To prioritize candidate compounds, we initially evaluated activation of EAAT2 protein in PA-EAAT2 cells. Promising compounds were further evaluated in primary dissociated neuron and astrocyte mixed cultures and then in mice. FIG. 6 presents the characterization of Compound 212320 in PA-EAAT2 cells. Compound 212320 increased EAAT2 protein levels in a dose—(FIG. 6B) and time—(FIG. 6C) dependent manner. Importantly, the induction occurred in a short amount of time (within 1-2 hr) and was sustained even up to 72 hr (data not show). Additionally, induction occurred at low nanomolar concentrations. […] (FIG. 6D).

EphA5 = EphA5 (Homo sapiens, UniProt P54756); assay: Protein kinase profiling: EphA5; type: biochemical; conditions: read-out: EphA5 inhibited
Sequence of EphA5 (P54756 25-1037, species assumed): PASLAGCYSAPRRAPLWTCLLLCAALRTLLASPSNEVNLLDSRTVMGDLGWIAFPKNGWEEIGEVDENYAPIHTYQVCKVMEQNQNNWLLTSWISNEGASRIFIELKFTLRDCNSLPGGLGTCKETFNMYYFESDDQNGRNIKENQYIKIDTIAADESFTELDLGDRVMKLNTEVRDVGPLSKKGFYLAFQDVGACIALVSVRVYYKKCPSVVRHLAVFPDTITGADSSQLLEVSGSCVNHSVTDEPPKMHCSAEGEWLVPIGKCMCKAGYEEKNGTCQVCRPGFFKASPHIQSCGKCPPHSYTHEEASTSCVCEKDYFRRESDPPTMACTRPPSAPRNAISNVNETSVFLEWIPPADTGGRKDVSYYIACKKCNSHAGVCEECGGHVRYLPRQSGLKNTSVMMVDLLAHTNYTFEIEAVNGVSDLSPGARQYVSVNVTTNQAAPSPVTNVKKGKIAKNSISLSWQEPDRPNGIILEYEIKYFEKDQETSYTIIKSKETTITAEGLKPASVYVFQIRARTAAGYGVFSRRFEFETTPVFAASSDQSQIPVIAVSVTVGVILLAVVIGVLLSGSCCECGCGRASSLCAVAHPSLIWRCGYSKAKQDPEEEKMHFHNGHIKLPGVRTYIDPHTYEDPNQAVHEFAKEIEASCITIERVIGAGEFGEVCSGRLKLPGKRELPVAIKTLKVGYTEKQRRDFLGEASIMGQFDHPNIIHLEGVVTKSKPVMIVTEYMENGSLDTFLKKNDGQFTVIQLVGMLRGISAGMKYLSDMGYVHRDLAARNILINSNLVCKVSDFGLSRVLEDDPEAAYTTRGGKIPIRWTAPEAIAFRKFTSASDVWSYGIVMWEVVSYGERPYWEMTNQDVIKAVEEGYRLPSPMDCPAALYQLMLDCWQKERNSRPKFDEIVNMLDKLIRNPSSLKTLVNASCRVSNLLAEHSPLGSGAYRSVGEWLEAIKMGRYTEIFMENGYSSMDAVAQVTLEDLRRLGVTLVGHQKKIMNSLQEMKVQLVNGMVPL
Protocol: as §1

[6] = test system: GFAP, GS, EAAT1, GAPDH, SOD1, actin, YB-1, RNA polymerase II, synaptophysin, EAAT3, EAAT4, PSD95, AKT, PI3K, IkB-α, ERK2; assay: Total protein and expression of other proteins (global protein synthesis); type: in vivo, mouse
Excerpt: Furthermore, the following observations indicate that the effects of Compound 212320 on EAAT2 protein expression were not due to a general increase in protein synthesis. First, the total amount of protein in compound-treated cells and mice was not increased compared with that in vehicle-treated cells and mice. Secondly, we examined the expression of a variety of other proteins in mouse brains: astrocyte-specific proteins including GFAP, glutamine synthetase (GS), and EAAT1 (another astrocytic glutamate transporter subtype), several housekeeping proteins including GAPDH, SOD1, actin, YB-1, RNA polymerase II, several neuronspecific proteins including synaptophysin, EAAT3 (a neuronal glutamate transporter), EAAT4, PSD95, and several signaling proteins including AKT, PI3K, IkB-α and ERK2.

[7] = test system: APPSw/Ind transgenic mice; assay: Alzheimer's disease model, Y-maze test; type: in vivo, mouse; conditions: 40 mg/kg i.p. daily for 10 days, 7-month-old mice
Protocol: Compound 212320 was evaluated in APPSw/Ind transgenic mice, an Alzheimer's disease model. […] 7-month-old mice were treated with 40 mg/kg of Compound 212320 by intraperitoneal injection daily for 10 days and then evaluated the effects on short-term memory by Y-maze test. Compound 212320 restored short-term memory loss in APP mice after 10-day treatment (23 wild-type mice, 21 APP mice).
APPSw/Ind transgenic mice were treated with Compound 212320 at 40 mg/kg or vehicle intraperiotoneally beginning at 7 months after symptoms of memory loss are apparent. After daily treatment for 10 days, Y-maze was used to measure effects on short-term memory.

[8] = from 8 hr to 24 hr post-injection

Question: `Cc1ccccc1CSc1ccc(-c2ccccn2)nn1` [Compound 7-4] was tested. Which “Decrease of infarct volume” value ([1]; 40 mg/kg i.p. following reperfusion, vs vehicle) did it give?
Answer: 57%

Question: And the Infarct volume ([1]; 40 mg/kg i.p., n=6)?
Answer: 6.8±1.6

Question: What about the inhibition at 10 µM (EphA4) of the same compound?
Answer: 44%

Question: What about the “Neuronal loss and degeneration (MAP2 immunostaining)” value ([2]; FIG. 7D) of the same compound?
Answer: significantly prevented

Question: And the “Toxicity in all assays” value ([2]; cell culture assays)?
Answer: did not cause any detectable toxicity

Question: And the “Glutamate-induced cytotoxicity (LDH assay)” value ([2]; glutamate for 2 hr (FIG. 7C))?
Answer: significantly reduced

Question: And the “MAP2-positive neurons left compared to the control” value ([2]; pretreatment at 2 μM)?
Answer: 40.4±6.4%

Question: And the “MAP2-positive neurons left compared to the control” value ([2]; pretreatment at 3 μM)?
Answer: 60.9±7.3%

Question: What about the “Protective effects after pretreatment with dihydrokainic acid (DHK), an EAAT2 blocker” value ([2]; with DHK pretreatment) of the same compound?
Answer: partially abolished

Question: And the “EAAT2 induction compared with ceftriaxone” value (EAAT2 [3]; 40 mg/kg vs ceftriaxone 200 mg/kg, a single dose after 24 hr)?
Answer: greater EAAT2 induction than ceftriaxone

Question: And the “Induced EAAT2 protein levels, dose dependence” value (EAAT2 [3]; FIG. 8C)?
Answer: dose-dependent

Question: And the “Induced glutamate uptake, dose dependence” value (EAAT2 [3]; FIG. 8C)?
Answer: dose-dependent

Question: What about the “EAAT2 protein levels increase” value (EAAT2 [3]; 2 hr post-injection) of the same compound?
Answer: 1.5-2 fold

Question: What about the Glutamate uptake increase (EAAT2 [3]; 2 hr post-injection) of the same compound?
Answer: 1.5-2 fold

Question: And the “EAAT2 protein levels increase” value (EAAT2 [3]; 72 hr, data not shown)?
Answer: ~1.5 fold

Question: And the “EAAT2 protein levels increase” value (EAAT2 [3]; [8])?
Answer: 2-3 fold

Question: And the Glutamate uptake increase (EAAT2 [3]; [8])?
Answer: 2-3 fold

Question: And the “Activity on all other kinases tested” value [4]?
Answer: insignificant activity

Question: What about the EAAT2 protein levels (EAAT2 [5]) of the same compound?
Answer: increased

Question: What about the Glutamate uptake function (EAAT2 [5]) of the same compound?
Answer: increased

Question: What about the “EAAT2 mRNA levels” value (EAAT2 mRNA) of the same compound?
Answer: not changed

Question: What about the inhibition at 10 µM (EphA5) of the same compound?
Answer: 44%

Question: And the “Induction of other proteins in mouse brains” value ([6]; FIG. 8F)?
Answer: None of the above proteins were induced

Question: And the “Total amount of protein vs vehicle” value ([6]; compound-treated cells and mice)?
Answer: not increased

Question: And the “Short-term memory loss (Y-maze test)” value [7]?
Answer: restored
